Test [1] deals with A549. Nature of the test: Antiproliferative activity against human A549 cells assessed as inhibition of cell growth incubated for 48 hrs by MTT assay. In kind it is functional, cell-based. The conditions noted are these: A549, 48 h.
In test [2] the test system is HeLa. Nature of the test: Antiproliferative activity against human HeLa cells assessed as inhibition of cell growth incubated for 48 hrs by MTT assay. The test is classed as functional, cell-based.
For test [3], the system named is HepG2. The test can be described thus: Antiproliferative activity against human HepG2 cells assessed as inhibition of cell growth incubated for 48 hrs by MTT assay. The test is classed as functional, cell-based. The conditions noted are these: HepG2, 48 h.
The test system of test [4] is HGC-27. Nature of the test: Antiproliferative activity against human HGC-27 cells assessed as inhibition of cell growth incubated for 48 hrs by MTT assay. The conditions noted are these: HGC-27, 48 h, read-out: IC50. The test is classed as functional, cell-based.
Test [5] has as its system L02. Nature of the test: Antiproliferative activity against human L02 cells assessed as inhibition of cell growth incubated for 48 hrs by MTT assay. In kind it is functional, cell-based. Conditions: L02, 48 h.
Test [6] deals with Poly [ADP-ribose] polymerase 1 (Homo sapiens, UniProt P09874). The test can be described thus: Inhibition of PARP-1 (unknown origin) incubated for 70 mins by HT universal chemiluminescent assay.
Chain of Poly [ADP-ribose] polymerase 1 (P09874 whole entry): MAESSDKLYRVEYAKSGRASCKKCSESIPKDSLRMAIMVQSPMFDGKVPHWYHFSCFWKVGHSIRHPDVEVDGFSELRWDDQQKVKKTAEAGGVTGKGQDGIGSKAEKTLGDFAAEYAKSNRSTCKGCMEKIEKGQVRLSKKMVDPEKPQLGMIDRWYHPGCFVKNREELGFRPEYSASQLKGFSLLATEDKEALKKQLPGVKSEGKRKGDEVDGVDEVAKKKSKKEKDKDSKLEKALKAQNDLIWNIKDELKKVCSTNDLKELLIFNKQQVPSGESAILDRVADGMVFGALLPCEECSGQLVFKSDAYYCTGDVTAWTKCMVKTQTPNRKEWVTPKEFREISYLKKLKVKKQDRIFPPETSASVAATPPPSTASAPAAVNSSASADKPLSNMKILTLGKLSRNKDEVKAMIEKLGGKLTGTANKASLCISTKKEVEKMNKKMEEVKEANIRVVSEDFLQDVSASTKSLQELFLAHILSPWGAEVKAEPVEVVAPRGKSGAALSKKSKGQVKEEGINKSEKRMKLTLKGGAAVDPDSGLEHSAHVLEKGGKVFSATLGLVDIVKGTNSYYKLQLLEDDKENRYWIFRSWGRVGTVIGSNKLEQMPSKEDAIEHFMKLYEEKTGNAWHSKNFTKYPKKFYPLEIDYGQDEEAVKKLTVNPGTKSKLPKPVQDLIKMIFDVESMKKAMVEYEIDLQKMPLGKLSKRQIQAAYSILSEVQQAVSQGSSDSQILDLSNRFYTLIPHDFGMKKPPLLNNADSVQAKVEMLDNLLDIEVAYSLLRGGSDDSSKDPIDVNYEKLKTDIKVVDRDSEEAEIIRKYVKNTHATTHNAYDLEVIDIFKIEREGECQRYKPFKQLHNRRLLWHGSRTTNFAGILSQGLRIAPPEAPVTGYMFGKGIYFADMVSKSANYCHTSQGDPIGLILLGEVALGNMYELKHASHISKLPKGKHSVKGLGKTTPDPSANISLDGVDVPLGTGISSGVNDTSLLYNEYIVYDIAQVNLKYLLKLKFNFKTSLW

Turning to `O=S(=O)(c1ccc(Br)cc1)N1C[C@@H]2CCCN3CCC[C@@H]([C@H]23)[C@H]1CCCc1nc2cc(Cl)ccc2n1S(=O)(=O)c1ccc(Br)cc1`, the half-maximal inhibitory concentration (IC50) in test [1] is 79.9 µM; in test [2], 59.6 µM; in test [3], more than 80 µM; in test [4], 77.2 µM.
For `O=C(CCC[C@@H]1[C@H]2CCCN3CCC[C@@H](CN1C(=O)OCC1c4ccccc4-c4ccccc41)[C@@H]23)NCCCc1nc2ccc(C(F)(F)F)cc2[nH]1`, in that order: 18.7 µM, 13.2 µM, 22.5 µM and 19.7 µM.
For `Cn1c(CCC[C@@H]2[C@H]3CCCN4CCC[C@@H](CN2C(=O)OCC2c5ccccc5-c5ccccc52)[C@@H]34)nc2ccc([N+](=O)[O-])cc21`, in that order: 31 µM, 23.8 µM, 13.8 µM and 11.1 µM.
`O=C(OCC1c2ccccc2-c2ccccc21)N1C[C@@H]2CCCN3CCC[C@@H]([C@H]23)[C@H]1CCCc1nc2ccc(C(F)(F)F)cc2[nH]1`: the IC50 in test [1] turned out to be 33.6 µM; in test [2], 25.5 µM; in test [3] it was 27.7 µM; in test [4], 25.6 µM.
`O=S(=O)(c1cccc2ccccc12)N1C[C@@H]2CCCN3CCC[C@@H]([C@H]23)[C@H]1CCCc1nc2cc(F)ccc2n1S(=O)(=O)c1cccc2ccccc12`: the IC50 was 16.9 µM in test [1]; 10.9 µM in test [2]; more than 64 µM in test [5]; 6.85 µM in test [3]; 7.56 µM in test [4]; 13.8 µM in test [6].
On to `Cn1c(CCCNC(=O)CCC[C@@H]2[C@H]3CCCN4CCC[C@@H](CN2C(=O)OCC2c5ccccc5-c5ccccc52)[C@@H]34)nc2ccc([N+](=O)[O-])cc21`, for which the half-inhibitory concentration (IC50) in test [1] was 20.6 µM; in test [2], 15.5 µM; in test [3], 23.8 µM; in test [4], 16.8 µM.
For `O=C(OCC1c2ccccc2-c2ccccc21)N1C[C@@H]2CCCN3CCC[C@@H]([C@H]23)[C@H]1CCCc1nc2ccc(C(F)(F)F)cc2n1C(=O)OCC1c2ccccc2-c2ccccc21`, in that order: 19 µM, 21.2 µM, 28.6 µM and 27.8 µM.
The like results for `O=C(OCC1c2ccccc2-c2ccccc21)N1C[C@@H]2CCCN3CCC[C@@H]([C@H]23)[C@H]1CCCc1nc2ccccc2n1C(=O)OCC1c2ccccc2-c2ccccc21` were, in that order, 24.1 µM, 16.6 µM, 16.5 µM and 13.8 µM.
The like results for `O=S(=O)(c1cccc2ccccc12)N1C[C@@H]2CCCN3CCC[C@@H]([C@H]23)[C@H]1CCCc1nc2ccc(F)cc2n1S(=O)(=O)c1cccc2ccccc12` were, in that order, 62.4 µM, 40 µM, 19.8 µM and 12.4 µM.
`O=S(=O)(c1ccc(C(F)(F)F)cc1)N1C[C@@H]2CCCN3CCC[C@@H]([C@H]23)[C@H]1CCCc1nc2cc(Cl)ccc2n1S(=O)(=O)c1ccc(C(F)(F)F)cc1`: the IC50 was 57.3 µM in test [1]; 62.4 µM in test [2]; more than 64 µM in test [5]; 9.17 µM in test [3]; 8.65 µM in test [4]; 14.4 µM in test [6].
As to `CC(C)(C)c1ccc(S(=O)(=O)N2C[C@@H]3CCCN4CCC[C@@H]([C@H]34)[C@H]2CCCc2nc3cc([N+](=O)[O-])ccc3n2S(=O)(=O)c2ccc(C(C)(C)C)cc2)cc1`, the concentration for half-maximal inhibition (IC50) in test [1] came to 62.8 µM; in test [2], 65.6 µM; in test [3], 50.2 µM; in test [4], 44.2 µM.
For `CC(C)(C)c1ccc(S(=O)(=O)N2C[C@@H]3CCCN4CCC[C@@H]([C@H]34)[C@H]2CCCc2nc3ccc([N+](=O)[O-])cc3n2S(=O)(=O)c2ccc(C(C)(C)C)cc2)cc1`, in that order: 69.3 µM, 70.1 µM, 52.8 µM and 47.8 µM.
On to `O=S(=O)(c1ccc(Cl)cc1)N1C[C@@H]2CCCN3CCC[C@@H]([C@H]23)[C@H]1CCCc1nc2cc(Cl)ccc2n1S(=O)(=O)c1ccc(Cl)cc1`, for which the half-inhibitory concentration (IC50) in test [1] was 68.3 µM; in test [2], more than 80 µM; in test [3] it was 21.6 µM; in test [4] it was 18.4 µM.
For `O=S(=O)(c1ccc(Br)cc1)N1C[C@@H]2CCCN3CCC[C@@H]([C@H]23)[C@H]1CCCc1nc2ccc(Cl)cc2n1S(=O)(=O)c1ccc(Br)cc1`, in that order: 68.2 µM, 71.2 µM, 32.2 µM and 29.3 µM.
On to `Cc1ccc(S(=O)(=O)N2C[C@@H]3CCCN4CCC[C@@H]([C@H]34)[C@H]2CCCc2nc3ccc(Br)cc3n2S(=O)(=O)c2ccc(C)cc2)cc1`, for which the IC50 in test [1] is 12.3 µM; in test [2], 8.56 µM; in test [5], more than 64 µM; in test [3], 5.89 µM; in test [4], 9.38 µM; in test [6], 4.17 µM.
In the case of `O=S(=O)(c1ccc(Cl)cc1)N1C[C@@H]2CCCN3CCC[C@@H]([C@H]23)[C@H]1CCCc1nc2ccc(Cl)cc2n1S(=O)(=O)c1ccc(Cl)cc1`, the half-inhibitory concentration (IC50) in test [1] came out at 46.1 µM; in test [2] it was 53.2 µM; in test [3], 11.2 µM; in test [4] it was 12.1 µM.
For `CC(C)(C)c1ccc(S(=O)(=O)N2C[C@@H]3CCCN4CCC[C@@H]([C@H]34)[C@H]2CCCc2nc3cc(Cl)ccc3n2S(=O)(=O)c2ccc(C(C)(C)C)cc2)cc1`, in that order: 77.5 µM, 66.3 µM, more than 80 µM and 58.9 µM.
For `Cc1ccc(S(=O)(=O)N2C[C@@H]3CCCN4CCC[C@@H]([C@H]34)[C@H]2CCCc2nc3cc([N+](=O)[O-])ccc3n2S(=O)(=O)c2ccc(C)cc2)cc1`, in that order: 53.2 µM, more than 80 µM, 52.3 µM and 47.4 µM.
The like results for `O=C(CCC[C@@H]1[C@H]2CCCN3CCC[C@@H](CN1C(=O)OCC1c4ccccc4-c4ccccc41)[C@@H]23)NCCCc1nc2ccccc2[nH]1` were, in that order, 30.7 µM, 21.7 µM, 37.4 µM and 24.4 µM.
`CC(C)(C)c1ccc(S(=O)(=O)N2C[C@@H]3CCCN4CCC[C@@H]([C@H]34)[C@H]2CCCc2nc3ccc(Cl)cc3n2S(=O)(=O)c2ccc(C(C)(C)C)cc2)cc1`: the IC50 was determined as 67.2 µM in test [1], 78.5 µM in test [2], 70.7 µM in test [3] and 60.3 µM in test [4].
On to `O=C(OCC1c2ccccc2-c2ccccc21)N1C[C@@H]2CCCN3CCC[C@@H]([C@H]23)[C@H]1CCCc1nc2ccc(Cl)cc2[nH]1`, for which the half-maximal inhibitory concentration (IC50) was found to be 36.3 µM in test [1], 20.4 µM in test [2], 19.7 µM in test [3] and 15.2 µM in test [4].
As to `Cc1ccc(S(=O)(=O)N2C[C@@H]3CCCN4CCC[C@@H]([C@H]34)[C@H]2CCCc2nc3ccc([N+](=O)[O-])cc3n2S(=O)(=O)c2ccc(C)cc2)cc1`, the IC50 is 74.2 µM in test [1], 71.8 µM in test [2], 40 µM in test [3] and 40.2 µM in test [4].
`C[C@]1(c2nc3c(C(N)=O)cccc3[nH]2)CCCN1` [VELIPARIB]: the half-inhibitory concentration (IC50) in test [1] was 15.2 µM; in test [2], 18.1 µM; in test [3], 13.7 µM; in test [4], 16 µM.
For `CC(C)(C)c1ccc(S(=O)(=O)N2C[C@@H]3CCCN4CCC[C@@H]([C@H]34)[C@H]2CCCc2nc3ccccc3n2S(=O)(=O)c2ccc(C(C)(C)C)cc2)cc1`, in that order: 59.7 µM, 55.6 µM, 11.6 µM and 22.2 µM.
For `Cc1ccc(S(=O)(=O)N2C[C@@H]3CCCN4CCC[C@@H]([C@H]34)[C@H]2CCCc2nc3ccccc3n2S(=O)(=O)c2ccc(C)cc2)cc1`, in that order: 69.9 µM, 49.6 µM, 13.5 µM and 18.2 µM.
In the case of `O=S(=O)(c1ccc(C(F)(F)F)cc1)N1C[C@@H]2CCCN3CCC[C@@H]([C@H]23)[C@H]1CCCc1nc2ccc(Cl)cc2n1S(=O)(=O)c1ccc(C(F)(F)F)cc1`, the concentration for half-maximal inhibition (IC50) in test [1] was more than 80 µM; in test [2], more than 80 µM; in test [3], more than 80 µM; in test [4], 70.3 µM.
Regarding `O=C(OCC1c2ccccc2-c2ccccc21)N1C[C@@H]2CCCN3CCC[C@@H]([C@H]23)[C@H]1CCCc1nc2ccc(Br)cc2[nH]1`, the IC50 in test [1] turned out to be 20.8 µM; in test [2], 15.1 µM; in test [3], 11.6 µM; in test [4], 10.4 µM.

For the origin of these results see ChEMBL document CHEMBL5500344, “Design, synthesis and biological evaluation of matrine contains benzimidazole derivatives as dual TOPOI and PARP inhibitors for cancer therapy” (Eur J Med Chem, 2024).
